The record followed here is PubChem BioAssay AID214 (DTP/NCI, 2004).

In the experiment the test system is B6C3F1 mice, colon carcinoma 38 s.c., T/C. The experiment in a line: NCI In Vivo Anticancer Drug Screen. Data for tumor model Colon Carcinoma 38 (subcutaneous) in B6C3F1 mice. The conditions noted are these: endpoint: median tumor weight (est.), higher = larger tumour. As for the experimental part: The antitumor activity of compounds was measured in mice bearing transplantable tumors. Survival or tumor size were measured and the results are expressed as the measurement made in the treated group (T) divided by the measurement made in the vehicle treated control group (C). The tumor model used in this assay is Colon Carcinoma 38 (subcutaneous) in B6C3F1 mice

Where [1] appears, read: dose: 6.25 mg/kg/injection, schedule: Q07DX002 (ip), vehicle: saline.
[2] abbreviates: dose: 12.5 mg/kg/injection, schedule: Q07DX002 (ip), vehicle: saline.
The mark [3] stands for this setting: dose: 25.0 mg/kg/injection, schedule: Q07DX002 (ip), vehicle: saline.
Setting [4] is: dose: 50.0 mg/kg/injection, schedule: Q07DX002 (ip), vehicle: saline.
Where [5] appears, read: dose: 50.0 mg/kg/injection, schedule: Q07DX002 (ip), vehicle: Klucel (hydroxypropylcellulose) (HPC).
[6] abbreviates: dose: 100.0 mg/kg/injection, schedule: Q07DX002 (ip), vehicle: Klucel (hydroxypropylcellulose) (HPC).
The mark [7] stands for this setting: dose: 3.12 mg/kg/injection, schedule: Q07DX002 (ip), vehicle: saline.
[8] abbreviates: dose: 200.0 mg/kg/injection, schedule: Q07DX002 (ip), vehicle: saline.
Where [9] appears, read: dose: 400.0 mg/kg/injection, schedule: Q07DX002 (ip), vehicle: saline.
Setting [10] is: dose: 800.0 mg/kg/injection, schedule: Q07DX002 (ip), vehicle: saline.
The mark [11] stands for this setting: dose: 100.0 mg/kg/injection, schedule: Q07DX002 (ip), vehicle: saline with Tween-80.
The mark [12] stands for this setting: dose: 200.0 mg/kg/injection, schedule: Q07DX002 (ip), vehicle: saline with Tween-80.
The mark [13] stands for this setting: dose: 400.0 mg/kg/injection, schedule: Q07DX002 (ip), vehicle: saline with Tween-80.

Where “and” joins values, the source holds several entries; their conditions need not be identical. Equal entries are not always repeated. Results filed as inconclusive are left out.

As for `C[C@@]1(CO)[C@H](O)CC[C@@]2(C)[C@H]1CC[C@H]1C[C@@H]3C[C@@]12CC[C@@]3(O)COC(=O)CN`, the T/C reads like this: (dose: 0.4 mg/kg/injection, schedule: Q07DX002 (ip), vehicle: saline + alcohol) 61 % of control; (dose: 0.8 mg/kg/injection, schedule: Q07DX002 (ip), vehicle: saline + alcohol) 88 % of control; (dose: 1.6 mg/kg/injection, schedule: Q07DX002 (ip), vehicle: saline + alcohol) 54 % of control; (dose: 3.2 mg/kg/injection, schedule: Q07DX002 (ip), vehicle: saline + alcohol) 63 % of control; (dose: 6.4 mg/kg/injection, schedule: Q07DX002 (ip), vehicle: saline + alcohol) 106 % of control.

Consider `CC[C@@H](C)[C@@H]1NC(=O)C(NC(=O)C(CC(C)C)N(C)C(=O)C2CCCN2C(=O)C(C)O)C(C)OC(=O)C(Cc2ccc(OC)cc2)N(C)C(=O)C2CCCN2C(=O)C(CC(C)C)NC(=O)C(C)C(=O)C(C(C)C)OC(=O)C[C@H]1O` (stereo not given in full), for which the T/C (dose: 600.0 micrograms/kg/injection, schedule: Q07DX002 (ip), vehicle: distilled water + alcohol) was 118 % of control.

`CCOC(=O)C(N)C[S][Sn]([CH3])([CH3])[Cl]` (stereo not given): the T/C is, setting by setting: under setting [1], 123 % of control; under setting [2], 61 % of control; under setting [3], 90 % of control; under setting [4], 110 % of control.

In the case of `O=C1CC2(C(=O)N1CN1CCOCC1)c1ccccc1-c1ccccc12`, the T/C was 99 % of control under setting [5]; 44 % of control under setting [6]; 107 % of control (dose: 200.0 mg/kg/injection, schedule: Q07DX002 (ip), vehicle: Klucel (hydroxypropylcellulose) (HPC)); 79 % of control (dose: 400.0 mg/kg/injection, schedule: Q07DX002 (ip), vehicle: Klucel (hydroxypropylcellulose) (HPC)); 56 % of control (dose: 800.0 mg/kg/injection, schedule: Q07DX002 (ip), vehicle: Klucel (hydroxypropylcellulose) (HPC)).

As to `ClCCCN1CCN(CCCl)CC1`, the T/C (dose: 5.0 mg/kg/injection, schedule: Q07DX002 (ip), vehicle: saline) is 101 % of control; the T/C (dose: 10.0 mg/kg/injection, schedule: Q07DX002 (ip), vehicle: saline) is 83 % of control; the T/C (dose: 20.0 mg/kg/injection, schedule: Q07DX002 (ip), vehicle: saline) is 44 % of control.

Turning to `O=C1N[C@H]2[C@H](O)[C@H](O)[C@@H](O)[C@H](O)[C@@H]2c2cc3c(c(O)c21)OCO3`, the T/C is 113 % of control (dose: 0.88 mg/kg/injection, schedule: Q01DX008 (ip), vehicle: saline + alcohol); 105 % of control (dose: 1.75 mg/kg/injection, schedule: Q01DX008 (ip), vehicle: saline + alcohol); 88 % of control (dose: 3.5 mg/kg/injection, schedule: Q01DX008 (ip), vehicle: saline + alcohol).

As for `C=C(C(=O)O)C(N)C(=O)O` (stereo not given), the T/C by setting is: (dose: 150.0 mg/kg/injection, schedule: Q07DX002 (ip), vehicle: saline) 56 % of control; (dose: 300.0 mg/kg/injection, schedule: Q07DX002 (ip), vehicle: saline) 94 % of control.

Consider `C[n+]1c(-c2cccc(OCCOCCOc3cccc(-c4c5cc(N)ccc5c5ccc(N)cc5[n+]4C)c3)c2)c2cc(N)ccc2c2ccc(N)cc21`, for which the T/C (dose: 4.0 mg/kg/injection, schedule: Q07DX002 (ip), vehicle: water) was 71 % of control; the T/C (dose: 8.0 mg/kg/injection, schedule: Q07DX002 (ip), vehicle: water) is 54 % of control; the T/C (dose: 16.0 mg/kg/injection, schedule: Q07DX002 (ip), vehicle: water) is 85 % of control and 66 % of control; the T/C (dose: 64.0 mg/kg/injection, schedule: Q07DX002 (ip), vehicle: water) is 33 % of control and 52 % of control.

Consider `COc1ccc(C(=O)C(CN(C)C)CN(C)C)cc1`, for which the T/C is, setting by setting: under setting [7], 109 % of control; under setting [1], 113 % of control; under setting [2], 115 % of control; under setting [3], 102 % of control.

For the compound `CC(C)CCC(=O)c1ccoc1`, the T/C is, setting by setting: (dose: 0.25 mg/kg/injection, schedule: Q03HX006 (ip), vehicle: saline with Tween-80) 56 % of control; (dose: 0.5 mg/kg/injection, schedule: Q03HX006 (ip), vehicle: saline with Tween-80) 56 % of control; (dose: 1.0 mg/kg/injection, schedule: Q03HX006 (ip), vehicle: saline with Tween-80) 81 % of control; (dose: 2.0 mg/kg/injection, schedule: Q03HX006 (ip), vehicle: saline with Tween-80) 87 % of control.

Turning to `NC(CCC(=O)NC(CS)C(=O)NCC(=O)O)C(=O)O` (stereo not given), the T/C was 89 % of control under setting [4]; 87 % of control (dose: 100.0 mg/kg/injection, schedule: Q07DX002 (ip), vehicle: saline); 102 % of control under setting [8]; 88 % of control under setting [9]; 113 % of control under setting [10].

Turning to `Cc1cc(Nc2ccc3c(c2)OCO3)c2cc3c(cc2n1)OCO3`, the T/C reads like this: under setting [5], 78 % of control and 103 % of control; under setting [6], 96 % of control and 113 % of control and 115 % of control.

In the case of `COCCCNC1=C(C#N)C(=O)NC(c2cccc([N+](=O)[O-])c2)S1` (stereo not given), the T/C by setting is: (dose: 225.0 mg/kg/injection, schedule: Q07DX002 (ip), vehicle: saline with Tween-80) 172 % of control; (dose: 450.0 mg/kg/injection, schedule: Q07DX002 (ip), vehicle: saline with Tween-80) 171 % of control; (dose: 900.0 mg/kg/injection, schedule: Q07DX002 (ip), vehicle: saline with Tween-80) 159 % of control.

`S=C(NCNC(=S)c1ccncc1)c1ccncc1`: the T/C runs as follows: under setting [11], 70 % of control; under setting [12], 104 % of control; under setting [13], 70 % of control; (dose: 800.0 mg/kg/injection, schedule: Q07DX002 (ip), vehicle: saline with Tween-80) 66 % of control.

Consider `O=C(C/C(=N\C(=S)Nc1cc(C(F)(F)F)ccc1Cl)NO)N1CCCC1`, for which the T/C is 85 % of control (dose: 50.0 mg/kg/injection, schedule: Q07DX002 (ip), vehicle: saline with Tween-80); 57 % of control under setting [11]; 70 % of control under setting [12]; 100 % of control under setting [13].

As for `O=C(c1cccnc1)c1cc(-c2ccccn2)c(=O)n2ccccc12`, the T/C is 75 % of control under setting [8], 83 % of control under setting [9] and 88 % of control under setting [10].

In the case of `Cc1cc(NCCCN(C)C)c2ccc3c(ccc4c(NCCCN(C)C)cc(C)nc43)c2n1`, the T/C runs as follows: (dose: 0.78 mg/kg/injection, schedule: Q07DX002 (ip), vehicle: saline) 97 % of control; (dose: 1.56 mg/kg/injection, schedule: Q07DX002 (ip), vehicle: saline) 91 % of control; under setting [7], 115 % of control; under setting [1], 100 % of control.

For the compound `Nc1n[nH]c2ccccc12`, the T/C is 105 % of control (dose: 50.0 mg/kg/injection, schedule: Q07DX002 (ip), vehicle: acid diluted with saline); 112 % of control (dose: 100.0 mg/kg/injection, schedule: Q07DX002 (ip), vehicle: acid diluted with saline); 84 % of control (dose: 200.0 mg/kg/injection, schedule: Q07DX002 (ip), vehicle: acid diluted with saline); 59 % of control (dose: 400.0 mg/kg/injection, schedule: Q07DX002 (ip), vehicle: acid diluted with saline); 74 % of control (dose: 800.0 mg/kg/injection, schedule: Q07DX002 (ip), vehicle: acid diluted with saline).
